Key:
PD-L1 = assay: FACS analysis for PD-L1 cell surface expression after interferon treatment; format: cell-based; details: IFNα 1000 IU/ml, 48 hours, **p<0.01
Experimental: A loss of IRF9 causes PD-L1 expression to be increased after IFNα stimulation. FACS analysis for PD-L1 cell surface expression using PE tagged anti-PD-L1, MIH5 (1:50). Cells were treated with IFNα (1000 IU/ml) or IFNγ (10 ng/ml) for 48 hours prior to FACS. Data is represented as normalised mean fluorescence intensity (MFI). Error bars represent SEM, n=3. Statistical significance values equal: **p<0.01.

4T1.2-luc2 cells = assay: poly(I:C) treatment of mice bearing 4T1.2-luc2 mammary fat pad tumours, metastasis by bioluminescence and QPCR; format: in vivo, balb/c mice; details: 25 ug poly(I:C) 3x weekly IV from day 4; primary tumour resected at 0.4 g; bioluminescence and QPCR of luciferase vs vimentin; *p<0.05, **p<0.01
Experimental: From day 4, mice were treated with 25 ug poly(I:C) or control 3× weekly IV. After primary tumour resection at 0.4 g, mice were monitored for metastasis by bioluminescence (A) and by QPCR analysis of luciferase expression compared to vimentin at end point (B). *p<0.05, **p<0.01.
Expression of Irf9 is knocked out in balb/c (66c14, 4T1) and C57 B1/6 (EO771, PyMT) mouse cell lines and the impact on tumour cell proliferation and orthotopic tumour growth and metastasis in vivo, is required. Associated changes in tumour infiltating and circulating immune cells, impact on tumour cell susceptibility to immune effector cells in vitro and the impact of NK cell specific loss of IFN signalling is measured. • a) Using TALEN technology (Boch J. TALEs of genome targeting. Nature biotechnology. 2011; 29(2):135-6) an Irf9 knockout 4T1 cell line has been generated (FIG. 5). This is repeated in 66c14, EO771 and PyMT cell lines. Given that Irf7 is induced by the ISGF3 complex of STAT1/2 and Irf9, Irf9 loss will likely directly result in reduction of Irf7. Irf7 we can also be knocked out directly in these cells. • The impact of Irf9 loss is measured on cellular proliferation using the SRB assay. […] The activation and function of NK cells is measured by measuring the expression of NKG2D, DNAM-1 and IFNγ on NKp46^+ NK cells. […]

4T1.2-Luc2 = assay: neo-adjuvant poly(I:C) therapy, primary tumour growth and survival; format: in vivo, Balb/c mice
Experimental: Female 8-week-old Balb/c mice were administered poly(I:C) (25 μg, I.V., thrice weekly) and/or doxorubicin (4 mg/kg, twice weekly) beginning 2 days post tumour cell inoculation (100,000 4T1.2-Luc2 IMFP). Differences in primary tumour growth were detectable 6 days after tumour cell inoculation using bioluminescent imaging (of four mice representative of the larger cohort) (A). Therapy was ceased and primary tumours were surgically removed and weighed 12 days post tumour cell injection (B). n=10 mice per group, error bars represent the 95% CI, *p<0.05, **p<0.01, ***p<0.001 using Student's t-tests.
Mice used in FIG. 2 continued to undergo weekly bioluminescent imaging to visualise the kinetics of metastatic spread. (A) Images taken 19 and 23 days post tumour cell inoculation are of the same four mice in identical order and representative of the larger cohort. (B) Mice were individually sacrificed at first signs of metastatic distress and dates recorded to generate Kaplan-Meier survival estimates. […]
Tumour-bearing mice are treated with poly(I:C), a stable derivative of poly(I:C):poly ICLC that is currently in clinical trials (Hiltonol™, Oncovir) or recombinant IFNα1 in early and late treatment settings and the impact of such treatments on immune activation and function, primary tumour growth and metastasis is measured. […]

IFNα
PD-L1 expression in cells with loss of IRF9 (PD-L1): increased

poly(I:C)
metastasis to lung and bone (4T1.2-luc2 cells): reduces metastasis to lung and bone
survival (Kaplan-Meier) (4T1.2-Luc2; neo-adjuvant therapy ceased day 12, mice sacrificed at first signs of metastatic distress, ***p<0.001): prolongs survival
primary tumour growth (4T1.2-Luc2; poly(I:C) 25 μg I.V. thrice weekly from 2 days post inoculation, bioluminescence day 6, tumour weight day 12): reduces primary tumour growth
